Data published in patent US8362052B2, “Isoindolin-1-one derivative” (MSD K.K., priority 2009, dated 2013).

Target: T1, human GPR120 (Homo sapiens, UniProt Q5NUL3)
T1 construct: expressed in transfected cells
T1 sequence (Q5NUL3 1-361): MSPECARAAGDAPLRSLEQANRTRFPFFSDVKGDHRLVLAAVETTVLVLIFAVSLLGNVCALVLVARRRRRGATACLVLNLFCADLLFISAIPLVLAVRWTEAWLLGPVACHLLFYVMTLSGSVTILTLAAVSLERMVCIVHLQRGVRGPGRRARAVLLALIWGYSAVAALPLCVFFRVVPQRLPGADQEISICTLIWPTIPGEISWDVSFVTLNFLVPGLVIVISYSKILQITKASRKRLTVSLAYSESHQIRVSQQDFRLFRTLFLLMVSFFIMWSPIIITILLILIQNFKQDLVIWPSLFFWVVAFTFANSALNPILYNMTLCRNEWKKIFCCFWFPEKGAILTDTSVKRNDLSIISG
Assay: Measurement of intracellular calcium concentration (FLIPR), GPR120 agonist action
Type: cell-based
Details: human GPR120 expression CHO cells, Fluo-4 AM
Description: Primers were synthesized in the domains on the opposite sides of the base sequences of the ORFs of the known GPCR and GPR120 in GenBank Accession NOs. NM 181745 (human) and NM 181748 (mouse), and the genes were cloned by RT-PCR. The base sequences of the primers used are described below. The restriction enzymes, BamHI and EcoRI, recognition sites were introduced for subcloning, respectively.
Using Lipofectamine 2000 (Invitrogen), cDNA of GPR120 receptor was transfected into CHO/NFAT-BLA cells, and drug-resistant cells were isolated to obtain GPR120 stable expression strains. The GPR120-expressed CHO cells were cultured in DMEM/F12 medium containing 10% fetal bovine serum, 100 units/ml penicillin, 0.1 mg/ml streptomycin sulfate, 250 μg/ml Zeocin, 500 μg/mL Geneticin and 15 mM HEPES.
On the day before the measurement day, 4 μM Fluo-4 AM (fluorescence calcium indicator reagent) was incubated to be introduced into the human GPR120 expression CHO cells plated at 20000 cells per well of a 96-well black plate (ViewPlate; Packard) in the presence of 2.5 mM probenecid in a CO2 incubator for 1 hour. […] Variations in the intracellular calcium concentration were measured by Fluorescence Imaging Plate Reader (FLIPR; Molecular Devices) to examine the agonist action, and EC50 values were calculated.

EC50 [nM]	SMILES
850	O=C1c2ccccc2CN1c1cc(F)cc(Oc2cccnc2)c1 [Example 1, 2-[3-fluoro-5-(pyridin-3-yloxy)phenyl]isoindolin-1-one]
180	O=S1(=O)c2ccccc2CN1c1cc(F)cc(Oc2cccnc2)c1 [Example 2, 2-[3-fluoro-5-(pyridin-3-yloxy)phenyl]-2,3-dihydro-1,2-benzisothiazol-1,1-dioxide]
